Data set [1] has as its target T1, Interleukin-1 receptor-associated kinase 4 (Homo sapiens, UniProt Q9NWZ3).
T1 sequence (Q9NWZ3 whole entry): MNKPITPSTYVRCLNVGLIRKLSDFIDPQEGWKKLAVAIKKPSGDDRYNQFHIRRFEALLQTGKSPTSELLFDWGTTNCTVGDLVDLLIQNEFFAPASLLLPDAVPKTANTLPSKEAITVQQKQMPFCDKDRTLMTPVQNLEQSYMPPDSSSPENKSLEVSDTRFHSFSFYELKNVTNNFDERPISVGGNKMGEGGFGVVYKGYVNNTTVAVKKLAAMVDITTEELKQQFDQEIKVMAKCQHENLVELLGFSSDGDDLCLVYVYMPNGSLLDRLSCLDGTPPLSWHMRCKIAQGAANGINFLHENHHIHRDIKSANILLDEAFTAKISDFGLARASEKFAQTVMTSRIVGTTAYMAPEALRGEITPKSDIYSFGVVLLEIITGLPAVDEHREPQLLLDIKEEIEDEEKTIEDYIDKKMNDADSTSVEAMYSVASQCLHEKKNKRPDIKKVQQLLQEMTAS
Description: Inhibition of IRAK4 (unknown origin) in presence of ATP by enzymatic assay.

The nature of data set [2]: Metabolic stability in human hepatocytes assessed as intrinsic clearance measured per 10^6 cells. The format is ADME, cell-based, Hepatocyte. To be noted: read-out: CLH.
Data set [3] is filed under the species Homo sapiens. Description: Selectivity index, ratio of IC50 for inhibition of FLT3 (unknown origin) to IC50 for inhibition of IRAK4 (unknown origin).
The target of data set [4] is T1, Interleukin-1 receptor-associated kinase 4. In words: Inhibition of IRAK4 (unknown origin) phosphorylation by cell based assay.
Data set [5] in a line: Lipophilicity, LogD at pH 7.4 of the compound by shake flask method. The format is physicochemical. As to conditions: buffer.
In data set [6] the target is T2, Receptor-type tyrosine-protein kinase FLT3 (Homo sapiens, UniProt P36888).
T2 sequence (P36888 whole entry): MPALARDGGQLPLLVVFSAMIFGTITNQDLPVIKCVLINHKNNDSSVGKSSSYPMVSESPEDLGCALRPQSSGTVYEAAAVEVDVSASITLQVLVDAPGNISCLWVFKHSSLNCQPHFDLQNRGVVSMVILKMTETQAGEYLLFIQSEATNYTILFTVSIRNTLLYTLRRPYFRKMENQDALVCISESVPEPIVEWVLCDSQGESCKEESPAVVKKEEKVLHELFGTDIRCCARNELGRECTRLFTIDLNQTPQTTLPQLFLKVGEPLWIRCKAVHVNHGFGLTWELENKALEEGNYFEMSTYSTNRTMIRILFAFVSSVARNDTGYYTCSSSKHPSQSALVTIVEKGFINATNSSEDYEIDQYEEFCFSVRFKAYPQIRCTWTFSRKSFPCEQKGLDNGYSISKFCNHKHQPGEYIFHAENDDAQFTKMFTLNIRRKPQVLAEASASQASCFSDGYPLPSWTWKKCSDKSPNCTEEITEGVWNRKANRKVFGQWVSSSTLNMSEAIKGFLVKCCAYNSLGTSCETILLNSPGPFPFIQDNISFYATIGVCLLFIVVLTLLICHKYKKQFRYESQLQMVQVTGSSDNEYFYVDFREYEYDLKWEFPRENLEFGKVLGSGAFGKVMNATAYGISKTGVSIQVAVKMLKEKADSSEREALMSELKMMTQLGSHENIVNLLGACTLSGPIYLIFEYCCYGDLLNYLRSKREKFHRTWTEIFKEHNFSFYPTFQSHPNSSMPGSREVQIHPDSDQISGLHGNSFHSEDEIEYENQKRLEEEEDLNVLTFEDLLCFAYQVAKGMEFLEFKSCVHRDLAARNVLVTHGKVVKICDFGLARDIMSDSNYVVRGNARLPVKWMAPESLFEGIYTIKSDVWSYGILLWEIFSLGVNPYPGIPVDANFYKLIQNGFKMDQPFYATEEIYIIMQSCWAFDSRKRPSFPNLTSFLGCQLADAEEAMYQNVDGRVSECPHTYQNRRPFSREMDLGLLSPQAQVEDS
Description: Inhibition of FLT3 (unknown origin) in presence of 600 uM ATP.

A short description of data set [7]: Metabolic stability in human liver microsomes assessed as intrinsic clearance. Type of data set: ADME, Microsome. As to conditions: read-out: CLH.
The nature of data set [8]: Efflux ratio of apparent permeability basolateral to apical side over apical to basolateral side in human Caco-2 cells measured for 360 mins by liquid scintillation counting based analysis. Type of data set: ADME, cell-based. Background: Caco-2 monolayers are a common model of the intestinal barrier.
Data set [9] in a line: Clearance in human assessed as liver blood flow. Type of data set: ADME, tissue-based.
Data set [10] can be described thus: Clearance in human. Type of data set: ADME.
Data set [11] can be described thus: Metabolic stability in human cytosol assessed as intrinsic clearance. The format is ADME, subcellular.
A short description of data set [12]: Apparent permeability across apical to basolateral side in human Caco-2 cells measured for 360 mins by liquid scintillation counting based analysis. Type of data set: ADME, cell-based.
Data set [13] deals with High affinity nerve growth factor receptor (Homo sapiens, UniProt P04629). Description: Inhibition of TRKA (unknown origin) in presence of 400 uM ATP.
Chain of High affinity nerve growth factor receptor (P04629 whole entry): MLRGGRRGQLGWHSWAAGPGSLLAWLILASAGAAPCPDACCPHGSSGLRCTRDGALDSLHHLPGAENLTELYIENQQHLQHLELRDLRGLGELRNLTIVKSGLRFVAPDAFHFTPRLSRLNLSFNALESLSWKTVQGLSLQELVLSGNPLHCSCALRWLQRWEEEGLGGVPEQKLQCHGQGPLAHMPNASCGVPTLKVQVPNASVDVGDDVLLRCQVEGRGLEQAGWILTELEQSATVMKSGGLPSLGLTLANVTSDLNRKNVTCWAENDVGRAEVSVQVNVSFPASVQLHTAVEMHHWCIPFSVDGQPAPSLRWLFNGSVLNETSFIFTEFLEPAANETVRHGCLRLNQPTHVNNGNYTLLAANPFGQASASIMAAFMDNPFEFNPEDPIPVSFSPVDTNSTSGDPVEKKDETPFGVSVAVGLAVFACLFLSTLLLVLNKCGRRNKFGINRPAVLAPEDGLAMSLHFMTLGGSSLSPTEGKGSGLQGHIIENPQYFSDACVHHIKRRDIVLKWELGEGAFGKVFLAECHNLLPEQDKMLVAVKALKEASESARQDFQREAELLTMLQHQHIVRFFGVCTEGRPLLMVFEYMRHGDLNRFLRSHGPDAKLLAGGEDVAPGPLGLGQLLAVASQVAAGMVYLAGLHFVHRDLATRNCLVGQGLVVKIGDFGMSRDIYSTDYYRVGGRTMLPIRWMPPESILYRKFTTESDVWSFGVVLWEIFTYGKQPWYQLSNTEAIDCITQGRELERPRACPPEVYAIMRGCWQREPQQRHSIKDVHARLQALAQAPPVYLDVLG
For data set [14], the target named is Interleukin-1 receptor-associated kinase 1 (Homo sapiens, UniProt P51617). In words: Inhibition of IRAK1 (unknown origin) in presence of 25 uM ATP.
Chain of Interleukin-1 receptor-associated kinase 1 (P51617 whole entry): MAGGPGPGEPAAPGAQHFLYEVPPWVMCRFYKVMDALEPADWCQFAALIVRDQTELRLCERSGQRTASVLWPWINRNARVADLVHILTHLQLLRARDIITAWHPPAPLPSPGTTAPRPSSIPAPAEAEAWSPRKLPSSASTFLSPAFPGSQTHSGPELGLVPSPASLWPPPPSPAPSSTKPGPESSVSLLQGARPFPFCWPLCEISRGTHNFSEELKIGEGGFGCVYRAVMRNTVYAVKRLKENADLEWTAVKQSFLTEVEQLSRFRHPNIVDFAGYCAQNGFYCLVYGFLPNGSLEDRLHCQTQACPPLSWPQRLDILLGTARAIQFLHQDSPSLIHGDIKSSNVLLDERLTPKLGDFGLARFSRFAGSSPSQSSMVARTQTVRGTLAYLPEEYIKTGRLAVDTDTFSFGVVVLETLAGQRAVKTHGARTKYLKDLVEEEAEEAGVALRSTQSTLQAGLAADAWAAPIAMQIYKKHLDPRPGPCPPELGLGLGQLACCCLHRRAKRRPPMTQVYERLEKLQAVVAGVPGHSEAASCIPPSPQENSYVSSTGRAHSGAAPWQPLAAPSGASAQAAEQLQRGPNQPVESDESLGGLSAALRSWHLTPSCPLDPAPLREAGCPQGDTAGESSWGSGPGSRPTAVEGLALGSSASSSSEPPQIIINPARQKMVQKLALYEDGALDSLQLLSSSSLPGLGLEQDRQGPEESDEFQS
Data set [15] has as its target NT-3 growth factor receptor (Homo sapiens, UniProt Q16288). Description: Inhibition of TRKC (unknown origin) in presence of 50 uM ATP.
Data set [16] deals with Tyrosine-protein kinase BTK (Homo sapiens, UniProt Q06187). In words: Inhibition of BTK (unknown origin) in presence of 25 uM ATP.
Chain of Tyrosine-protein kinase BTK (Q06187 whole entry): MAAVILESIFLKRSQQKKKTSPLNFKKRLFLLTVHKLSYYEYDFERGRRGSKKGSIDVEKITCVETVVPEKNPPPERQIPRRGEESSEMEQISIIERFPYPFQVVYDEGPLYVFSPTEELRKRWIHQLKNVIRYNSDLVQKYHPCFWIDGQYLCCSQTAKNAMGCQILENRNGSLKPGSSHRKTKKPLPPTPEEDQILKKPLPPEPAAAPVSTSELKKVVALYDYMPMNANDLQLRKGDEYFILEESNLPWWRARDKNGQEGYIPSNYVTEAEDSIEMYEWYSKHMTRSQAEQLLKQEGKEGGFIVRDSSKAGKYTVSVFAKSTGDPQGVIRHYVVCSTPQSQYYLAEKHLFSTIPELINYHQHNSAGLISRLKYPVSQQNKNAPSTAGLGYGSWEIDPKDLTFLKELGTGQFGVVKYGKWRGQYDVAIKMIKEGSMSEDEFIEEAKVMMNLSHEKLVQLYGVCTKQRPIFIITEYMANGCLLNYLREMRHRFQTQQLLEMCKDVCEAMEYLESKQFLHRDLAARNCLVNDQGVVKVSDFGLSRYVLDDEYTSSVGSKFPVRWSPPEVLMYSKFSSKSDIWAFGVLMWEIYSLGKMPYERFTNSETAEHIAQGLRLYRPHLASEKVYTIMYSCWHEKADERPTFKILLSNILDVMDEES
Data set [17] is filed under the species Homo sapiens. Description: Selectivity index, ratio of IC50 for inhibition of TRKC (unknown origin) to IC50 for inhibition of IRAK4 (unknown origin).
Data set [18] has as its target T3, Phosphatidylinositol 4,5-bisphosphate 3-kinase catalytic subunit delta isoform (Homo sapiens, UniProt O00329).
T3 sequence (O00329 whole entry): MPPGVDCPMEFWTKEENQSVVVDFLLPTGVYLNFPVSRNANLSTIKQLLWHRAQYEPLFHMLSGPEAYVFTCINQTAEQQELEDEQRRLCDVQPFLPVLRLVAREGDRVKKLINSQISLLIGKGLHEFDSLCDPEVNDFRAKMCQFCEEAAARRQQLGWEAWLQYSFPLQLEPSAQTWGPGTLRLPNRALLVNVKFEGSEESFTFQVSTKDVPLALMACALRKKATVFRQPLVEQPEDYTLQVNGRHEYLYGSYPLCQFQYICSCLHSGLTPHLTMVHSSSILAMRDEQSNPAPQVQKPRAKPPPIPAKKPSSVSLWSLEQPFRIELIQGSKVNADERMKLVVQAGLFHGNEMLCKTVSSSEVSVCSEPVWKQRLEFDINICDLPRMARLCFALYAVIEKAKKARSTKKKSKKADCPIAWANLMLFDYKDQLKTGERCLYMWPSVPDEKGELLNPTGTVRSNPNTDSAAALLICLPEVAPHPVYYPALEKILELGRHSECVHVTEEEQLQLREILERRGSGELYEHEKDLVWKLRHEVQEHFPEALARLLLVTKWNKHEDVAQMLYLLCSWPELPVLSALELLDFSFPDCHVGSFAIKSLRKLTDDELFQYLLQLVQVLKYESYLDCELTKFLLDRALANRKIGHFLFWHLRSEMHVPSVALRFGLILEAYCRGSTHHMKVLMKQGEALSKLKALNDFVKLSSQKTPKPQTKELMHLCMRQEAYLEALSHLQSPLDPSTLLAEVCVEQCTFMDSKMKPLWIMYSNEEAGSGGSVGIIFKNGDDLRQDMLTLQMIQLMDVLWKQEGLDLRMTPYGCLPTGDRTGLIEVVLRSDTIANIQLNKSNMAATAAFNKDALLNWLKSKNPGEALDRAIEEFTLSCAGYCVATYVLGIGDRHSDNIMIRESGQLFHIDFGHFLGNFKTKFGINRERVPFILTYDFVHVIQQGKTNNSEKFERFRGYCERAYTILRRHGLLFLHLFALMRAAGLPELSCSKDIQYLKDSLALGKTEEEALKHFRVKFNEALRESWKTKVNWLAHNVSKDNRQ
In words: Inhibition of PI3Kdelta (unknown origin) in presence of […] uM ATP.

The species entered for data set [19] is Homo sapiens. In words: Selectivity index, ratio of IC50 for inhibition of IRAK1 (unknown origin) to IC50 for inhibition of IRAK4 (unknown origin).
The species named for data set [20] is Homo sapiens. In words: Selectivity index, ratio of IC50 for inhibition of PI3Kdelta (unknown origin) to IC50 for inhibition of IRAK4 (unknown origin).
The species named for data set [21] is Homo sapiens. In words: Selectivity index, ratio of IC50 for inhibition of TRKB (unknown origin) to IC50 for inhibition of IRAK4 (unknown origin).
For data set [22], the species on record is Homo sapiens. Description: Selectivity index, ratio of IC50 for inhibition of TRKA (unknown origin) to IC50 for inhibition of IRAK4 (unknown origin).
In data set [23] the target is BDNF/NT-3 growth factors receptor (Homo sapiens, UniProt Q16620). In words: Inhibition of TRKB (unknown origin) in presence of 25 uM ATP.
Chain of BDNF/NT-3 growth factors receptor (Q16620 whole entry): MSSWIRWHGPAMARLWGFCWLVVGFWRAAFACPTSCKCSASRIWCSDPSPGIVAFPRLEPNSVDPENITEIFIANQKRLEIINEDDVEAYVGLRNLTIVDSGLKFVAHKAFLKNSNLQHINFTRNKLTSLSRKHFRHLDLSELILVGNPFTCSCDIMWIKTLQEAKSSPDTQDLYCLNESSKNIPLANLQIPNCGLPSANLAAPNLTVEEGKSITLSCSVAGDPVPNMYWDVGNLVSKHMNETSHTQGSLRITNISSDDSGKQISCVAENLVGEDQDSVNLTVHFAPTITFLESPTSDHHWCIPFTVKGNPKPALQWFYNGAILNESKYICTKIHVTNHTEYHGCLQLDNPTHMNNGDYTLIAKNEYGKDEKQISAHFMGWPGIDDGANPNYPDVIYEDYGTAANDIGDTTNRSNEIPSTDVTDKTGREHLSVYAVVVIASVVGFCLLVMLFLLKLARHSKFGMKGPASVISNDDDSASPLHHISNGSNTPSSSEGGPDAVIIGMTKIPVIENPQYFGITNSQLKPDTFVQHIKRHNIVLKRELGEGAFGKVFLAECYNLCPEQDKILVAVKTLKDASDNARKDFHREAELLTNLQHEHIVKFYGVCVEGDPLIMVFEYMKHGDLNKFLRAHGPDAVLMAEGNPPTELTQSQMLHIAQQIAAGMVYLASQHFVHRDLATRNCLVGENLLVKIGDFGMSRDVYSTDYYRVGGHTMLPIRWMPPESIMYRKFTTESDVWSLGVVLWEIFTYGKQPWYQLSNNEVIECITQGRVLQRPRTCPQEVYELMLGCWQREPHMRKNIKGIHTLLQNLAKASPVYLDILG
The species named for data set [24] is Homo sapiens. In words: Selectivity index, ratio of IC50 for inhibition of BTK (unknown origin) to IC50 for inhibition of IRAK4 (unknown origin).

Some results are limits rather than exact numbers.

Chain of NT-3 growth factor receptor (Q16288 whole entry): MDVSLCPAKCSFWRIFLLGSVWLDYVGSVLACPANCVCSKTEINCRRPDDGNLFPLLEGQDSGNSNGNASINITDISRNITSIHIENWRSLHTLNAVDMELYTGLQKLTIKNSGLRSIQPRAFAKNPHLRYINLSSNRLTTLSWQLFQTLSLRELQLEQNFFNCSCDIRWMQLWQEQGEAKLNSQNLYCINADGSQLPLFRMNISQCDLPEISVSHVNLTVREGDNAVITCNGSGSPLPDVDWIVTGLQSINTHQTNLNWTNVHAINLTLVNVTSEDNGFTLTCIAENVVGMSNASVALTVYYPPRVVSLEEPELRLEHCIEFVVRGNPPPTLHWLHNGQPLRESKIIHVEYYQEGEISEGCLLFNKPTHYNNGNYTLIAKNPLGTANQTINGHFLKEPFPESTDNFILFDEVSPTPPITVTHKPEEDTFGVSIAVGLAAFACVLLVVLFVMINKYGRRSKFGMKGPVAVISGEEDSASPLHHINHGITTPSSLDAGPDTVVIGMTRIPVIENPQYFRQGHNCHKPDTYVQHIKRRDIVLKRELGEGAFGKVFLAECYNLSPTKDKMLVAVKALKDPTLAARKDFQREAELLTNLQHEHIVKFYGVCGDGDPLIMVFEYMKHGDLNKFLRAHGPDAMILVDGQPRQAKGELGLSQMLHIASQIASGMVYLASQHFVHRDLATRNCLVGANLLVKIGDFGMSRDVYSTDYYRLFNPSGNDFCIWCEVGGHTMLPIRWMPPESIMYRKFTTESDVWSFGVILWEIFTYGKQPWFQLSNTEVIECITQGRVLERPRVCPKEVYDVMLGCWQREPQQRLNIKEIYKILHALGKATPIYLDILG

For the molecule `CN1CCC(n2cc(Nc3nc(OC4(C)CC4)c4nc(-c5cnn(C)c5)ccc4n3)cn2)CC1`, the IC50 (commonly the point on the concentration scale where inhibition reaches its midpoint) turned out to be 3 nM in [1], 210 nM in data set [4] and 170 nM in data set [6]. In [2], the hepatocyte CLint is 1.7 µL/min/1e6 cells. The Ratio IC50 in the data set listed under Homo sapiens [3] is < 5. In addition, in data set [5], the logD (in general, the decadic logarithm of the distribution of all forms, ionised or not, between an organic phase and buffer at a given pH) was found to be 2.2. For the same molecule, in data set [7], the microsomal CLint was 15 µL/min/mg.
As to `Cc1ccc2nc(Nc3cnn(C4CCN(C)CC4)c3)nc(OC3(C)CC3)c2n1`, the efflux ratio – broadly, a quotient of directional permeabilities that is used to spot active efflux – at 6 h in data set [8] came out at 2.5. Moreover, the IC50 in data set [1] came out at 3 nM; in data set [4], 100 nM; in [6] it was 16 nM. Moreover, in [2], the hepatocyte CLint was determined as 1.9 µL/min/1e6 cells. Also, the Ratio IC50 in the data set filed under Homo sapiens [3] was > 30. Moreover, in data set [9], the LBF is 20%. Moreover, the clearance – broadly, a measure of how efficiently the substance is removed, as volume per time – in data set [10] stood at 5 mL/min/kg. The molecule further yielded a logD in data set [5] of 1.8. In addition, the microsomal CLint is < 0.5 µL/min/mg in data set [11] and 18 µL/min/mg in [7]. In data set [12], the Papp A→B – broadly, the apparent permeability from the apical to the basolateral side of a cell layer – at 6 h stood at 20 ×10⁻⁶ cm/s.
On to `CN1CCC(n2cc(Nc3nc(OC4(C)CC4)c4nc(C(=O)N(C)C)ccc4n3)cn2)CC1`, for which the efflux ratio at 6 h in data set [8] amounted to 17. In addition, the IC50 was determined as 13 nM in [1] and 670 nM in data set [4]. Further, the hepatocyte CLint in [2] is 1.7 µL/min/1e6 cells. The molecule further gave a logD in [5] of 1.2. In data set [7], the microsomal CLint was < 4.5 µL/min/mg. Moreover, the Papp A→B at 6 h in data set [12] is 1.5 ×10⁻⁶ cm/s.
Take `CC(=O)N1CCC(n2cc(Nc3nc(OC4CCOCC4)c4nc(C)ccc4n3)cn2)CC1`: the IC50 in [13] was 20 nM; in [1], 3 nM; in [4], 71 nM; in [6], 30 nM. The efflux ratio at 6 h in data set [8] came out at 2.6. Moreover, in data set [2], the hepatocyte CLint turned out to be 4.6 µL/min/1e6 cells. This molecule also showed a logD in [5] of 2.3. Moreover, the microsomal CLint in data set [7] worked out at 33 µL/min/mg. Moreover, the Papp A→B at 6 h in [12] came to 45 ×10⁻⁶ cm/s.
With `COC(=O)N1CCN([C@H]2CC[C@H](Nc3nc(Nc4cnn(C)c4)nc4ccc(CC#N)nc34)CC2)CC1`, the efflux ratio at 6 h in [8] worked out at 24. The IC50 was 3 nM in data set [1] and 170 nM in [4]. Moreover, the LBF in data set [9] came out at 70%. Moreover, the clearance in data set [10] was found to be 13 mL/min/kg. Moreover, the Papp A→B at 6 h in data set [12] is 9.3 ×10⁻⁶ cm/s.
On to `CN1CCC(n2cc(Nc3nc(OC4(C)CC4)c4nc(-c5cncnc5)ccc4n3)cn2)CC1`, for which the IC50 in data set [13] was found to be 19 nM; in data set [14] it was 2 nM; in [1], 0.6 nM; in data set [15], 36 nM; in data set [16], 44 nM; in data set [4], 24 nM. In addition, the IC50 came out at 18 nM in data set [18], 1200 nM in data set [6] and 82 nM in [23]. For the same molecule, the hepatocyte CLint in data set [2] worked out at 110 µL/min/1e6 cells. For the same molecule, the Ratio IC50 in the data set filed under Homo sapiens [3] was > 1000; in the data set listed under Homo sapiens [17], 60; in the data set listed under Homo sapiens [19] it was 3; in the data set listed under Homo sapiens [20], 30; in the data set listed under Homo sapiens [21], 140; in the data set filed under Homo sapiens [22], 32. Also, the Ratio IC50 in the data set filed under Homo sapiens [24] worked out at 70. This molecule gave a logD in data set [5] of 2. The microsomal CLint in data set [11] was 191 µL/min/mg; in [7] it was 96 µL/min/mg.

(Values after ChEMBL document CHEMBL5244269, “Improving metabolic stability and removing aldehyde oxidase liability in a 5-azaquinazoline series of IRAK4 inhibitors” (Bioorg Med Chem, 2020).)
